According to ChEMBL document CHEMBL1153245, “A profile of the in vitro anti-tumor activity of imidazolium-based ionic liquids” (2010):

Columns and labels:
Assay type in all cases: functional
ACHN = experiment: Anticancer activity against human ACHN cells assessed cell growth at 10 uM after 48 hrs by sulforhodamine B assay relative to control
CAKI-1 = experiment: Anticancer activity against human Caki1 cells assessed cell growth at 10 uM after 48 hrs by sulforhodamine B assay relative to control
RXF 393 = experiment: Anticancer activity against human RXF393 cells assessed cell growth at 10 uM after 48 hrs by sulforhodamine B assay relative to control
TK-10 = experiment: Anticancer activity against human TK10 cells assessed cell growth at 10 uM after 48 hrs by sulforhodamine B assay relative to control
DU-145 = experiment: Anticancer activity against human DU145 cells assessed cell growth at 10 uM after 48 hrs by sulforhodamine B assay relative to control
MCF7 = experiment: Anticancer activity against human MCF7 cells assessed cell growth at 10 uM after 48 hrs by sulforhodamine B assay relative to control
NCI/ADR-RES = experiment: Anticancer activity against human NCI/ADR-RES cells assessed cell growth at 10 uM after 48 hrs by sulforhodamine B assay relative to control
MDA-MB-231 = experiment: Anticancer activity against human MDA-MB-231 cells assessed cell growth at 10 uM after 48 hrs by sulforhodamine B assay relative to control
MDA-MB-435 = experiment: Anticancer activity against human MDA-MB-435 cells assessed cell growth at 10 uM after 48 hrs by sulforhodamine B assay relative to control
BT-549 = experiment: Anticancer activity against human BT549 cells assessed cell growth at 10 uM after 48 hrs by sulforhodamine B assay relative to control
T47D = experiment: Anticancer activity against human T47D cells assessed cell growth at 10 uM after 48 hrs by sulforhodamine B assay relative to control
MDA-MB-468 = experiment: Anticancer activity against human MDA-MB-468 cells assessed cell growth at 10 uM after 48 hrs by sulforhodamine B assay relative to control
K562 = experiment: Anticancer activity against human K562 cells assessed cell growth at 10 uM after 48 hrs by sulforhodamine B assay relative to control
[1] = Anticancer activity against human RPMI8266 cells assessed cell growth at 10 uM after 48 hrs by sulforhodamine B assay relative to control
HOP-62 = experiment: Anticancer activity against human HOP62 cells assessed cell growth at 10 uM after 48 hrs by sulforhodamine B assay relative to control
HOP-92 = experiment: Anticancer activity against human HOP92 cells assessed cell growth at 10 uM after 48 hrs by sulforhodamine B assay relative to control
NCI-H226 = experiment: Anticancer activity against human NCI-H226 cells assessed cell growth at 10 uM after 48 hrs by sulforhodamine B assay relative to control
NCI-H322M = experiment: Anticancer activity against human NCI-H322M cells assessed cell growth at 10 uM after 48 hrs by sulforhodamine B assay relative to control
NCI-H460 = experiment: Anticancer activity against human NCI-H460 cells assessed cell growth at 10 uM after 48 hrs by sulforhodamine B assay relative to control
NCI-H522 = experiment: Anticancer activity against human NCI-H522 cells assessed cell growth at 10 uM after 48 hrs by sulforhodamine B assay relative to control
HCC 2998 = experiment: Anticancer activity against human HCC2998 cells assessed cell growth at 10 uM after 48 hrs by sulforhodamine B assay relative to control
HCT-116 = experiment: Anticancer activity against human HCT116 cells assessed cell growth at 10 uM after 48 hrs by sulforhodamine B assay relative to control
HCT-15 = experiment: Anticancer activity against human HCT15 cells assessed cell growth at 10 uM after 48 hrs by sulforhodamine B assay relative to control
SW-620 = experiment: Anticancer activity against human SW620 cells assessed cell growth at 10 uM after 48 hrs by sulforhodamine B assay relative to control
SF-295 = experiment: Anticancer activity against human SF295 cells assessed cell growth at 10 uM after 48 hrs by sulforhodamine B assay relative to control
SF-539 = experiment: Anticancer activity against human SF539 cells assessed cell growth at 10 uM after 48 hrs by sulforhodamine B assay relative to control
SNB-19 = experiment: Anticancer activity against human SNB19 cells assessed cell growth at 10 uM after 48 hrs by sulforhodamine B assay relative to control
SNB-75 = experiment: Anticancer activity against human SNB75 cells assessed cell growth at 10 uM after 48 hrs by sulforhodamine B assay relative to control
LOX IMVI = experiment: Anticancer activity against human LOXIMVI cells assessed cell growth at 10 uM after 48 hrs by sulforhodamine B assay relative to control
Malme-3M = experiment: Anticancer activity against human MALME-3M cells assessed cell growth at 10 uM after 48 hrs by sulforhodamine B assay relative to control
M14 = experiment: Anticancer activity against human M14 cells assessed cell growth at 10 uM after 48 hrs by sulforhodamine B assay relative to control
SK-MEL-2 = experiment: Anticancer activity against human SK-MEL-2 cells assessed cell growth at 10 uM after 48 hrs by sulforhodamine B assay relative to control
SK-MEL-28 = experiment: Anticancer activity against human SK-MEL-28 cells assessed cell growth at 10 uM after 48 hrs by sulforhodamine B assay relative to control
SK-MEL-5 = experiment: Anticancer activity against human SK-MEL-5 cells assessed cell growth at 10 uM after 48 hrs by sulforhodamine B assay relative to control
UACC-257 = experiment: Anticancer activity against human UACC257 cells assessed cell growth at 10 uM after 48 hrs by sulforhodamine B assay relative to control
UACC-62 = experiment: Anticancer activity against human UACC62 cells assessed cell growth at 10 uM after 48 hrs by sulforhodamine B assay relative to control
IGROV-1 = experiment: Anticancer activity against human IGROV1 cells assessed cell growth at 10 uM after 48 hrs by sulforhodamine B assay relative to control
OVCAR-3 = experiment: Anticancer activity against human OVCAR-3 cells assessed cell growth at 10 uM after 48 hrs by sulforhodamine B assay relative to control
OVCAR-4 = experiment: Anticancer activity against human OVCAR4 cells assessed cell growth at 10 uM after 48 hrs by sulforhodamine B assay relative to control
OVCAR-8 = experiment: Anticancer activity against human OVCAR8 cells assessed cell growth at 10 uM after 48 hrs by sulforhodamine B assay relative to control
A498 = experiment: Anticancer activity against human A498 cells assessed cell growth at 10 uM after 48 hrs by sulforhodamine B assay relative to control
HL-60(TB) = experiment: Anticancer activity against human HL-60(TB) cells assessed cell growth at 10 uM after 48 hrs by sulforhodamine B assay relative to control
CCRF-CEM = experiment: Anticancer activity against human CCRF-CEM cells assessed cell growth at 10 uM after 48 hrs by sulforhodamine B assay relative to control

CCCCCCCCCCCCCCCCCC[n+]1ccn(C)c1.[Cl-]
Activity (ACHN): -12.35% | Activity (CAKI-1): -67.34% | Activity (RXF 393): -28.27% | Activity (TK-10): -70.24% | Activity (DU-145): -7.74% | Activity (MCF7): -33.81% | Activity (NCI/ADR-RES): 20.86% | Activity (MDA-MB-231): -66.25% | Activity (MDA-MB-435): -56.4% | Activity (BT-549): -55.64% | Activity (T47D): 35.89% | Activity (MDA-MB-468): -42.33% | Activity (K562): 28.31% | Activity [1]: 93.78% | Activity (HOP-62): -58.64% | Activity (HOP-92): -51.3% | Activity (NCI-H226): -54.04% | Activity (NCI-H322M): 5.3% | Activity (NCI-H460): -62.94% | Activity (NCI-H522): -74.88% | Activity (HCC 2998): -80.71% | Activity (HCT-116): -18.25% | Activity (HCT-15): 3.3% | Activity (SW-620): -45.24% | Activity (SF-295): -10.43% | Activity (SF-539): -85.24% | Activity (SNB-19): -47.53% | Activity (SNB-75): -74.36% | Activity (LOX IMVI): 0.13% | Activity (Malme-3M): -62.43% | Activity (M14): -33.7% | Activity (SK-MEL-2): -61.28% | Activity (SK-MEL-28): -49.38% | Activity (SK-MEL-5): -81.11% | Activity (UACC-257): -38% | Activity (UACC-62): -70.86% | Activity (IGROV-1): -43.92% | Activity (OVCAR-3): -48.71% | Activity (OVCAR-4): -19.32% | Activity (OVCAR-8): -20.19% | Activity (A498): -50.94% | Activity (HL-60(TB)): 3.76% | Activity (CCRF-CEM): 34.04%

CCCCCCCCCCCCCCCCCC[n+]1ccn(C)c1.F[P-](F)(F)(F)(F)F
Activity (ACHN): 5.45% | Activity (CAKI-1): -80.74% | Activity (RXF 393): -52.84% | Activity (TK-10): -59.16% | Activity (DU-145): -12.17% | Activity (MCF7): 1.35% | Activity (NCI/ADR-RES): 22.73% | Activity (MDA-MB-231): -32.88% | Activity (MDA-MB-435): -71.22% | Activity (BT-549): -23.5% | Activity (T47D): 13.4% | Activity (MDA-MB-468): -23.16% | Activity (K562): 14.23% | Activity [1]: 19.57% | Activity (HOP-62): -56% | Activity (HOP-92): -47.8% | Activity (NCI-H226): -34.72% | Activity (NCI-H322M): 11.62% | Activity (NCI-H460): -67.11% | Activity (NCI-H522): -53.86% | Activity (HCC 2998): -83.5% | Activity (HCT-116): -27.74% | Activity (HCT-15): 9.24% | Activity (SW-620): -48.51% | Activity (SF-295): -28.21% | Activity (SF-539): -80.04% | Activity (SNB-19): -67.18% | Activity (SNB-75): -68.15% | Activity (LOX IMVI): -13.99% | Activity (Malme-3M): -46.96% | Activity (M14): -28.52% | Activity (SK-MEL-2): -42.48% | Activity (SK-MEL-28): -57.59% | Activity (SK-MEL-5): -85.04% | Activity (UACC-257): -62.12% | Activity (UACC-62): -65.74% | Activity (IGROV-1): -12.15% | Activity (OVCAR-3): -57.4% | Activity (OVCAR-4): -10.51% | Activity (OVCAR-8): -34.11% | Activity (A498): -51.56% | Activity (HL-60(TB)): 2.58% | Activity (CCRF-CEM): 13.72%

CCCCCCCCCCCC[n+]1ccn(C)c1.F[B-](F)(F)F
Activity (ACHN): 54.07% | Activity (CAKI-1): 30.59% | Activity (RXF 393): 22.19% | Activity (TK-10): 24.24% | Activity (DU-145): 7.97% | Activity (MCF7): -1.79% | Activity (NCI/ADR-RES): 76.53% | Activity (MDA-MB-231): 26.48% | Activity (MDA-MB-435): 20.42% | Activity (BT-549): 1.51% | Activity (T47D): 11.08% | Activity (MDA-MB-468): -43.37% | Activity (K562): 80.69% | Activity [1]: 130.35% | Activity (HOP-62): 28.7% | Activity (HOP-92): 46.45% | Activity (NCI-H226): 37.19% | Activity (NCI-H322M): 67.4% | Activity (NCI-H460): 23.03% | Activity (NCI-H522): -10.37% | Activity (HCC 2998): 28.68% | Activity (HCT-116): 16.24% | Activity (HCT-15): 82.38% | Activity (SW-620): 54.63% | Activity (SF-295): 34.1% | Activity (SF-539): 35.07% | Activity (SNB-19): 39.2% | Activity (SNB-75): 3.39% | Activity (LOX IMVI): 35.51% | Activity (Malme-3M): 31.87% | Activity (M14): 24.71% | Activity (SK-MEL-2): 18.52% | Activity (SK-MEL-28): 62.65% | Activity (SK-MEL-5): -19.73% | Activity (UACC-257): -7.74% | Activity (UACC-62): 40.33% | Activity (IGROV-1): 1.02% | Activity (OVCAR-3): 55.26% | Activity (OVCAR-4): 12.68% | Activity (OVCAR-8): 13.12% | Activity (A498): 35.81% | Activity (HL-60(TB)): 50.79% | Activity (CCRF-CEM): 96%

CCCCCCCCCCCCCCCC[n+]1ccn(C)c1.[Cl-]
Activity (ACHN): -0.6% | Activity (CAKI-1): -83.54% | Activity (RXF 393): -66.19% | Activity (TK-10): -80.37% | Activity (DU-145): -69.69% | Activity (MCF7): -79.92% | Activity (NCI/ADR-RES): 37.13% | Activity (MDA-MB-231): -93.87% | Activity (MDA-MB-435): -55.77% | Activity (BT-549): -65.21% | Activity (T47D): -0.13% | Activity (MDA-MB-468): -78.99% | Activity (K562): 72.56% | Activity [1]: 15.77% | Activity (HOP-62): -82.71% | Activity (HOP-92): -80.2% | Activity (NCI-H226): -60.54% | Activity (NCI-H322M): 8.28% | Activity (NCI-H460): -87.94% | Activity (NCI-H522): -87.38% | Activity (HCC 2998): -94.43% | Activity (HCT-116): -87.23% | Activity (HCT-15): 9.85% | Activity (SW-620): -66.67% | Activity (SF-295): -39.48% | Activity (SF-539): -98.59% | Activity (SNB-19): -75.88% | Activity (SNB-75): -98.62% | Activity (LOX IMVI): -50.37% | Activity (Malme-3M): -77.38% | Activity (M14): -73.7% | Activity (SK-MEL-2): -64.47% | Activity (SK-MEL-28): -86.22% | Activity (SK-MEL-5): -95.2% | Activity (UACC-257): -61.13% | Activity (UACC-62): -94.58% | Activity (IGROV-1): -67.13% | Activity (OVCAR-3): -24.76% | Activity (OVCAR-4): -54.83% | Activity (OVCAR-8): -53.71% | Activity (A498): -65.31% | Activity (HL-60(TB)): 45.73% | Activity (CCRF-CEM): 33.57%
